Measured values published in patent publication US7727980B2, “Tricyclic androgen receptor modulator compounds and methods” (priority 2001, dated 2010).
Where two headings read alike, the source gives them in different places.

Assays:
human AR [1] = molecular target: T1, human AR (Homo sapiens, UniProt P10275); assay: AR whole cell competitive binding assay (3H-DHT), transfected COS-1 cells; set-up: expressed in transfected cells; transient transfection with pRShAR; conditions: COS-1 cells, 1 nM 3H-DHT, Cheng-Prusoff from IC50
T1 sequence (P10275 1-920): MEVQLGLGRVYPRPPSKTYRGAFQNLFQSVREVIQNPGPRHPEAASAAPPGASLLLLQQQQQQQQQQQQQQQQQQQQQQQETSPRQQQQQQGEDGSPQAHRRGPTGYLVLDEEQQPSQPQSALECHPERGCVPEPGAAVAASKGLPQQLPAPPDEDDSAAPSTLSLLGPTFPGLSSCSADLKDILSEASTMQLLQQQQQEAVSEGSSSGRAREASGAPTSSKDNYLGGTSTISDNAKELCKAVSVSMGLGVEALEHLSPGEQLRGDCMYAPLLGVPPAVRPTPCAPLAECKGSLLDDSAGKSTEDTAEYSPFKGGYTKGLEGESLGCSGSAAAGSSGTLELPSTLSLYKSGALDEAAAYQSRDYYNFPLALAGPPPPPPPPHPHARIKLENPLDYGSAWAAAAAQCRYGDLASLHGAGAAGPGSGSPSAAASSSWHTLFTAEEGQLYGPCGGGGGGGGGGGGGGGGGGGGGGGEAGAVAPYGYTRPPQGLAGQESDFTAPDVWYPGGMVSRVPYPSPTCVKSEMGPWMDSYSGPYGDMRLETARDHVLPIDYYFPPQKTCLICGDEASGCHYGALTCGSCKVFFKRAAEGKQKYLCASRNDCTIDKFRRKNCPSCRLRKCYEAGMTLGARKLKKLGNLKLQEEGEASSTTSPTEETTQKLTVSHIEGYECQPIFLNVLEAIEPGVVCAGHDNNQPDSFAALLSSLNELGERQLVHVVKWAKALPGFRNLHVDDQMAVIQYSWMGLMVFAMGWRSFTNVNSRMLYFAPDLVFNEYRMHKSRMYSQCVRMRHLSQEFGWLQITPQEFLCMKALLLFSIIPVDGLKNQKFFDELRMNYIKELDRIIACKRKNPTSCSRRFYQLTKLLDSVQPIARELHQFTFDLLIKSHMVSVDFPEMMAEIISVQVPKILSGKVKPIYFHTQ

human AR [2] = molecular target: T1, human AR; assay: Co-transfection assay, AR agonist activity, CV-1 cells; assay type: cell-based; set-up: expressed in transfected cells; host or cells: CV-1 cells (African green monkey kidney fibroblasts), transient transfection with pRShAR; conditions: for AR Agonist CV-1 Cells Efficacy (%): percent maximal response relative to reference agonist DHT
human AR [3] = molecular target: T1, human AR; assay: Co-transfection assay, AR antagonist activity in presence of DHT, CV-1 cells; assay type: cell-based; set-up: expressed in transfected cells; host or cells: CV-1 cells (African green monkey kidney fibroblasts), transient transfection with pRShAR; conditions: CV-1 cells; for IC50: antagonist potency or IC50, DHT at its EC50 concentration; for AR Antagonist CV-1 Cells Efficacy (%): percent maximal inhibition, DHT at its EC50 concentration
[4] = AR Agonist CV-1 Cells Potency (nM), agonist potency or EC50
[5] = AR Antagonist CV-1 Cells Potency (nM)

O=c1cc(C(F)(F)F)c2c3c(ccc2[nH]1)N(CC(F)(F)F)C1CCCC31 (racemic) [Compound 119, (±)-4c,5,6,7,7a(cis),8-Hexahydro-8-(2,2,2-trifluoroethyl)-4-trifluoromethylcyclopentano-[g]pyrrolo[3,2-f]quinolin-2(1H)-one]
Ki (human AR [1]; AR Binding Ki (nM)): 2.6 nM
EC50 (human AR [2]; [4]): 2.5 nM
AR Agonist CV-1 Cells Efficacy (%) (human AR [2]): 94%
IC50 (human AR [3]; [5]): > 10000 nM
AR Antagonist CV-1 Cells Efficacy (%) (human AR [3]): na (na = not active (i.e. efficacy of <20 and potency of >10,000))

CC1c2c(ccc3[nH]c(=O)cc(C(F)(F)F)c23)N(CC(F)(F)F)C1C (racemic) [Compound 123, (±)-5,6-Dihydro-5,6-cis-dimethyl-7-(2,2,2-trifluoroethyl)-4-trifluoromethyl-7H-pyrrolo[3,2-f]quinolin-2(1H)-one]
Ki (human AR [1]; AR Binding Ki (nM)): 14 nM
EC50 (human AR [2]; [4]): 1.4 nM
AR Agonist CV-1 Cells Efficacy (%) (human AR [2]): 104%
IC50 (human AR [3]; [5]): > 10000 nM
AR Antagonist CV-1 Cells Efficacy (%) (human AR [3]): na (na = not active (i.e. efficacy of <20 and potency of >10,000))

Cc1[nH]c2c(ccc3[nH]c(=O)cc(C(F)(F)F)c32)c1CCO [Compound 177, 7-(2-Hydroxyethyl)-6-methyl-4-trifluoromethyl-5H-pyrrolo[2,3-f]quinolin-2(1H)-one]
Ki (human AR [1]; AR Binding Ki (nM)): 31 nM
EC50 (human AR [2]; [4]): > 10000 nM
AR Agonist CV-1 Cells Efficacy (%) (human AR [2]): na (na = not active (i.e. efficacy of <20 and potency of >10,000))
IC50 (human AR [3]; [5]): 790 nM
AR Antagonist CV-1 Cells Efficacy (%) (human AR [3]): 98%

5-Ethyl-6-propyl-7-(2,2,2-trifluoroethyl)-4-trifluoromethyl-7H-pyrrolo[3,2-f]quinolin-2(1H)-one [Compound 155]
Ki (human AR [1]; read-out: AR Binding Ki): 7.4 nM
EC50 (human AR [2]; agonist potency or EC50, read-out: AR Agonist CV-1 Cells Potency): 9.4 nM
AR Agonist CV-1 Cells Efficacy (%) (human AR [2]): 59%
IC50 (human AR [3]; read-out: AR Antagonist CV-1 Cells Potency): > 10000 nM
AR Antagonist CV-1 Cells Efficacy (%) (human AR [3]): na (na = not active (i.e. efficacy of <20 and potency of >10,000))

O=c1cc(C(F)(F)F)c2c3c(ccc2[nH]1)N(CC(F)(F)F)C1CCCC31 (single isomer, unassigned; (+)) [Compound 178, (+)-4c,5,6,7,7a(cis),8-Hexahydro-8-(2,2,2-trifluoroethyl)-4-trifluoromethylcyclopentano-[g]pyrrolo[3,2-f]quinolin-2(1H)-one]
Ki (human AR [1]; AR Binding Ki (nM)): 900 nM
EC50 (human AR [2]; [4]): 21 nM
AR Agonist CV-1 Cells Efficacy (%) (human AR [2]): 24%
IC50 (human AR [3]; [5]): 50 nM
AR Antagonist CV-1 Cells Efficacy (%) (human AR [3]): 48%
